According to patent US20150087967A1, “METHOD AND APPARATUS USING MAGNETIC RESONANCE IMAGING FOR TISSUE PHENOTYPING AND MONITORING” (Oregon Health & Science University, priority 2012, published 2015):

Tested on: soft tissue sarcomas
Assay: Phase I clinical trial in soft tissue sarcoma patients: MRI (DCE-MRI, DWI, RECIST) after two weeks of Sorafenib only treatment (TP1) versus before therapy (TP0)
Type: in vivo, human
Method: Patients with biopsy-proven, grade 2-3, deep, and >5 cm soft tissue sarcomas participated in a phase I clinical trial in which the vascular endothelial growth factor receptor (VEGFR) inhibitor, Sorafenib, was added to a preoperative chemoradiotherapy regimen. Research MRI studies were performed at time-point zero (TP0)—before therapy, TP1, after two weeks of Sorafenib only treatment, and TP2, after eight more weeks of treatment with Sorafenib plus chemoradiation therapy, followed by surgery and pathology review including estimation of tumor histologic necrosis. A total of eleven patients consented to the research MRI scans, with 9 of them having at least two DCE-MRI studies (at TP0 and TP1). In these 9 patients, five masses were located in the thigh, two in the calf, one in the knee, and one in the shoulder.
The MRI studies were performed using a 3T Siemens instrument with the body transmit and phased-array body matrix (combined with a spine matrix) receive RF coils. Following scout and axial T2-weighted MRI, sagittal diffusion-weighted imaging (DWI) was performed (in seven of the 9 patients) using a spin-echo single-shot EPI sequence with TE/TR=104/8000 ms, 24-36 cm FOV, 5 mm slice thickness with zero gap, 192×192 matrix size, and b values of 0, 500, and 1000 s/mm^2 applied in three orthogonal directions.
Subsequently, a 3D RF-spoiled gradient-echo sequence was used to acquire sagittal DCE-MRI data with 10 degree flip angle, TE/TR=[…], and 320×160 matrix size. […]
ADC trace maps were generated with manufacturer's DWI data processing software. […] The arterial input functions (AIFs) used for the quantitative analyses were directly measured from ROIs placed in a femoral artery (for thigh, knee, and calf tumors) and an axillary artery (for the shoulder mass). The whole tumor ROI DWI/DCE-MRI parameter values were calculated by averaging the ROI values from each of the image slices covering the entire tumor, weighted by the pixel numbers within the image slice ROIs. Pixel parameter values were analyzed with histograms and the amplitude and median values were obtained. […]

Compound: CNC(=O)c1cc(Oc2ccc(NC(=O)Nc3ccc(Cl)c(C(F)(F)F)c3)cc2)ccn1 [Sorafenib]
- change in ADC (apparent diffusion coefficient) (% change at TP1 (two weeks of Sorafenib only) relative to TP0): small
- change in tumor size (RECIST) (% change at TP1 (two weeks of Sorafenib only) relative to TP0, 9 patients): small
- tumor vascular effect detected by DCE-MRI biomarkers (patients with grade 2-3 soft tissue sarcomas, after two weeks of Sorafenib only treatment (TP1)): Tumor vascular shut-down induced by Sorafenib preceded cell death
